Patent US12109176B1, “Effect of glycerol on biofilm forming bacteria and fungi that changes the microbes sensitivity to pro and anti-biofilm non-toxic, non-bonded plasma amino acids and amino acid derivatives” (priority 2023, dated 2024)
Entries after “also recorded” stand apart in the source; their conditions may differ.

Columns and labels:
[1] = tested on: fungal biofilm (C. albicans); test: Fungal biofilm disruption assay; assay type: cell-based, Candida albicans
Procedure: (§1) Two types of biofilm assays were performed: an inhibition assay and a disruption assay. The inhibition assay assesses the compound's ability to prevent biofilm development, while the disruption assay assesses the compound's ability to break up an existing mature biofilm.
(§2) All bacterial biofilm solutions were prepared in Tryptic Soy Broth (TSB), supplemented with 1% glucose (henceforth referred to as TSB-G). All subsequent procedures were performed in a manner that maintained sterility. A solution of each amino acid or an amino acid derivative to be tested was prepared in weight to volume concentrations ranging from 0.1-5.0%. Amino acids and amino acid derivatives were also tested in combinations. Compound solutions were homogenized with gentle agitation in the dark (4° C., 24 hours) before use.
(§3) 32 Amino acids and 2 amino acid derivatives of the amino acid serine that occur freely in human blood were tested. […] 31 of the 32 amino acids that were tested were the L-Isomers. Glycine has no stereoisomers. The 2 amino acid derivatives, ethanolamine and phosphoethanolamine were also tested. All biofilm assays were performed using 384-well non-tissue culture-treated polystyrene plates. The fungal species tested are as follows: Candida albicans, Candida guilliermondii, Candida parapsilosis, Candida glabrata, Candida tropicalis and Candida dubliniensis. The bacterial species tested are as follows: Staphylococci (standard wild type and methicillin-resistant strain USA300), Escherichia coli, Pseudomonas aeruginosa and Staphylococcus epidermidis.
(§4) Fungal strains were streaked on Yeast Peptone Dextrose (YPD) agar plates and incubated at 30° C. for 48 hours. A single colony from each strain to be tested was inoculated into YPD broth and grown for 12 hours at 30° C., shaking at 225 rpm. […] The cells were allowed to adhere to the plate for 90 minutes at 37° C. with shaking (350 rpm). […] The plate was further incubated for 24 hours at 37° C. with shaking (350 rpm). Media was carefully aspirated and the biofilm was measured by optical density at 600 nm. […] The cells were allowed to adhere to the plate for 90 minutes at 37° C. with shaking (350 rpm). […] The plate was further incubated for 24 hours at 37° C. with shaking (350 rpm). […] The plate was further incubated for 24 hours at 37° C. with shaking (350 rpm). Media was carefully aspirated, and the biofilm was measured by optical density at 600 nm.

fungal biofilm = test: In vitro testing on fungal biofilm (inhibition and/or disruption); assay type: cell-based; settings: in vitro testing
Procedure: as §1, §2, §3, §4

bacterial biofilm = test: In vitro testing on bacterial biofilm (inhibition and/or disruption); assay type: cell-based; settings: in vitro testing
[2] = tested on: bacterial (S. aureus) biofilm; test: Bacterial biofilm disruption assay; assay type: cell-based, Staphylococcus aureus
Procedure: as §1, §2, §3
(§5) Bacterial strains were streaked on Blood Agar plates (5% sheep blood in Tryptic Soy Broth) and incubated at 37° C. for 24 hours. A single colony from each strain to be tested was inoculated in a TSB broth and grown for 12 hours, at 37° C. with shaking (225 rpm). For the bacterial biofilm inhibition assays, 1 μL of saturated overnight cell culture was added to either 80 μL of TSB-G, or TSB-G supplemented with the amino acid compound solution to be tested, in a 384-well plate. The cells were allowed to adhere to the plate for 60 minutes at 37° C. without shaking. The media was carefully aspirated and 80 μL of TSB-G, or TSB-G supplemented with the amino acid compound solution was added to the plate. The plate was further incubated for 24 hours at 37° C. without shaking. Media was carefully aspirated and the biofilm was measured by optical density at 600 nm. Eight or twelve replicates were performed for each tested condition and the reported values are normalized to the control (TSB-G media only). For the bacterial biofilm disruption assays, 80 µL of TSB-G was added to the plate, along with 1 μL of overnight cell culture. The cells were allowed to adhere to the plate for 60 minutes at 37° C. with no shaking. The media was carefully aspirated and 80 μL of TSB-G was added to the plate. The plate was further incubated for 24 hours at 37° C. with no shaking. Media was carefully aspirated from the mature biofilm and 80 μL of TSB-G, or TSB-G supplemented with the amino acid to be tested, was gently added to the plate. The plate was further incubated for 24 hours at 37° C. without shaking. Media was aspirated and the biofilm was measured by optical density at 600 nm. Twelve replicates were performed for each tested condition and the reported values are normalized to the control (TSB-G media only).

[3] = tested on: fungal biofilm (C. albicans); test: Fungal biofilm inhibition assay; assay type: cell-based, Candida albicans
Procedure: as §1, §2, §3, §4

[4] = tested on: bacterial (S. aureus) biofilm and fungal biofilm (C. albicans); test: Biofilm inhibition assay, bacterial and fungal taken together; assay type: cell-based
[5] = tested on: bacterial (S. aureus) biofilm and fungal biofilm (C. albicans); test: Biofilm disruption assay, bacterial and fungal taken together; assay type: cell-based
Procedure: as §1, §2, §3, §4
as §5, with “plate.” for “plate. The plate was further incubated for 24 hours at 37° C. without shaking. Media was aspirated and the biofilm was measured by optical density at 600 nm. Twelve replicates were performed for each tested condition and the reported values are normalized to the control (TSB-G media only).”

[6] = tested on: bacterial (S. aureus) biofilm; test: Bacterial biofilm inhibition assay; assay type: cell-based, Staphylococcus aureus
[7] = tested on: bacterial and fungal biofilm; test: In vitro testing on bacterial and fungal biofilm (assay not told apart); assay type: cell-based; settings: for effect on bacterial and fungal biofilm (in words): in vitro testing; for concentration of maximum (ideal) antibiofilm effect: tested on its own, without glycerol
Procedure: as §1, §2, §3, §4
as §5, with “plate.” for “plate. The plate was further incubated for 24 hours at 37° C. without shaking. Media was aspirated and the biofilm was measured by optical density at 600 nm. Twelve replicates were performed for each tested condition and the reported values are normalized to the control (TSB-G media only).”

[8] = Table E, in the absence of an infusion of glycerol
[9] = Table F, in the presence of a sufficient concentration of glycerol
[10] = Table D, bacterial and fungal biofilm

SMILES | effect on fungal biofilm (in words) (fungal biofilm) | effect on bacterial biofilm (in words) (bacterial biofilm) | Reduce or Inhibit B Biofilm (dots: Disruption Biofilm Assay) ([2]; Table D, 0.1 to 5.0%) | Reduce or Inhibit B Biofilm (dots: Disruption Biofilm Assay) [2, 9] | Reduce Both (squares: Inhibition Biofilm Assay) [4, 10] | Reduce Both (squares: Inhibition Biofilm Assay) [4, 9] | Reduce Both (dots: Disruption Biofilm Assay) [5, 10] | Reduce Both (dots: Disruption Biofilm Assay) [5, 9] | Reduce or Inhibit F Biofilm (dots: Disruption Biofilm Assay) ([1]; Table D, 0.1 to 5.0%) | Reduce or Inhibit F Biofilm (dots: Disruption Biofilm Assay) [1, 9] | Reduce or Inhibit B Biofilm (squares: Inhibition Biofilm Assay) ([6]; Table D, 0.1 to 5.0%) | Reduce or Inhibit B Biofilm (squares: Inhibition Biofilm Assay) [6, 9] | effect on bacterial and fungal biofilm (in words) [7] | concentration of maximum (ideal) antibiofilm effect [7] [%] | Reduce or Inhibit F Biofilm (squares: Inhibition Biofilm Assay) ([3]; Table D, 0.1 to 5.0%) | Reduce or Inhibit F Biofilm (squares: Inhibition Biofilm Assay) [3, 9] | other results
Cn1cncc1C[C@H](N)C(=O)O [3-Methylhistidine, 3-methyl-L-histidine] | promoted fungal biofilm formation | antibacterial biofilm effect | ● (Single dot [ie. ●] signifies little effect on the Disruption Biofilm Assay (from about 10 to less than 30%)) | ● (Single dot [ie. ●] signifies little effect on the Disruption Biofilm Assay (from about 10 to less than 30%)) |  |  |  |  |  |  |  |  |  |  |  |  | Promote F Biofilm (dots: Disruption Biofilm Assay) ([1]; Table D, 0.1 to 5.0%): ● (Single dot [ie. ●] signifies little effect on the Disruption Biofilm Assay (from about 10 to less than 30%)); Promote F Biofilm (dots: Disruption Biofilm Assay) [1, 8]: ● (Single dot [ie. ●] signifies little effect on the Disruption Biofilm Assay (from about 10 to less than 30%)); Promote F Biofilm (squares: Inhibition Biofilm Assay) ([3]; Table D, 0.1 to 5.0%): ▪ (Single square [ie. ▪] signifies little effect on the Inhibition Biofilm Assay (from about 10 to less than 30%)); Promote F Biofilm (squares: Inhibition Biofilm Assay) [3, 8]: ▪ (Single square [ie. ▪] signifies little effect on the Inhibition Biofilm Assay (from about 10 to less than 30%))
N[C@@H](CC(=O)O)C(=O)O [Aspartic Acid, L-aspartic acid] | antifungal biofilm effects | antibacterial biofilm effect | ●● (Two dots [ie. ●●] signifies a major effect (greater than about 50%), on the Disruption Biofilm Assay) | ●● (Two dots [ie. ●●] signifies a major effect (greater than about 50%), on the Disruption Biofilm Assay) | ▪▪ (Two squares [ie. ▪▪] signifies a major effect (greater than about 50%), on the Inhibition Biofilm Assay) | ▪▪ (Two squares [ie. ▪▪] signifies a major effect (greater than about 50%), on the Inhibition Biofilm Assay) | ●● (Two dots [ie. ●●] signifies a major effect (greater than about 50%), on the Disruption Biofilm Assay) | ●● (Two dots [ie. ●●] signifies a major effect (greater than about 50%), on the Disruption Biofilm Assay) | ●● (Two dots [ie. ●●] signifies a major effect (greater than about 50%), on the Disruption Biofilm Assay) | ●● (Two dots [ie. ●●] signifies a major effect (greater than about 50%), on the Disruption Biofilm Assay) | ▪▪ (Two squares [ie. ▪▪] signifies a major effect (greater than about 50%), on the Inhibition Biofilm Assay) | ▪▪ (Two squares [ie. ▪▪] signifies a major effect (greater than about 50%), on the Inhibition Biofilm Assay) | very active against both bacterial and fungal biofilm | 0.5 | ▪▪ (Two squares [ie. ▪▪] signifies a major effect (greater than about 50%), on the Inhibition Biofilm Assay) | ▪▪ (Two squares [ie. ▪▪] signifies a major effect (greater than about 50%), on the Inhibition Biofilm Assay) | ideal concentration for antibiofilm effect ([7]; in the absence of glycerol on in vitro testing): 0.5 g %; effect on bacterial and fungal biofilm (in words) ([7]; listed as Aspartic acid): strong effect on biofilm-forming bacteria and fungi in reducing biofilm formation
N[C@@H](CS)C(=O)O [Cysteine, L-cysteine] | antifungal biofilm effects | antibacterial biofilm effect | ●● (Two dots [ie. ●●] signifies a major effect (greater than about 50%), on the Disruption Biofilm Assay) | ●● (Two dots [ie. ●●] signifies a major effect (greater than about 50%), on the Disruption Biofilm Assay) | ▪▪ (Two squares [ie. ▪▪] signifies a major effect (greater than about 50%), on the Inhibition Biofilm Assay) | ▪▪ (Two squares [ie. ▪▪] signifies a major effect (greater than about 50%), on the Inhibition Biofilm Assay) | ●● (Two dots [ie. ●●] signifies a major effect (greater than about 50%), on the Disruption Biofilm Assay) | ●● (Two dots [ie. ●●] signifies a major effect (greater than about 50%), on the Disruption Biofilm Assay) | ●● (Two dots [ie. ●●] signifies a major effect (greater than about 50%), on the Disruption Biofilm Assay) | ●● (Two dots [ie. ●●] signifies a major effect (greater than about 50%), on the Disruption Biofilm Assay) | ▪▪ (Two squares [ie. ▪▪] signifies a major effect (greater than about 50%), on the Inhibition Biofilm Assay) | ▪▪ (Two squares [ie. ▪▪] signifies a major effect (greater than about 50%), on the Inhibition Biofilm Assay) | potent antibiofilm effect; also recorded: strong antibiofilm effect; also recorded: activity against both bacterial and fungal biofilm | 0.5 | ▪▪ (Two squares [ie. ▪▪] signifies a major effect (greater than about 50%), on the Inhibition Biofilm Assay) | ▪▪ (Two squares [ie. ▪▪] signifies a major effect (greater than about 50%), on the Inhibition Biofilm Assay) | 
